Measured values as given in patent US11142504B2, “Substituted heterocycles as c-MYC targeting agents” (Northwestern University, priority 2016, dated 2021).

Columns and labels:
MycCap cells = experiment: Cell viability of MycCap cells; type: cell-based; conditions: Mus musculus, Myc-CaP
[1] = Stability in mouse liver microsomes; type: in vitro ADME; conditions: % remaining of compound after 60 min treatment with mouse liver microsomes
Procedure: In vitro metabolism of NUCC-176242 and NUCC-176248 were tested using mouse liver microsomes and a mouse S9 fraction. (See FIG. 9).

PC12 cells = experiment: Cell viability of PC12 cells; type: cell-based; conditions: Rattus norvegicus, PC-12; Cell viability of PC12 cells
Procedure: PC3 prostate cancer cell line with high Myc level and PC12 pheochromocytoma tumor cell line with non functional Max protein, which is not dependent on Myc-Max complex, were phased from ATCC. Cells were plated in 96 well plate at 1000 cells per well, and Myc inhibitor 361 at various concentrations was added to the cells next day. After 3 days of treatment, fresh medium with 361 were added again, and cell viability was measured by MTS assay at day 5 after the treatment. (See FIG. 11).

In the case of `Cn1nc(C(F)(F)F)cc1-c1ccc(OCc2ccc(Cl)cc2)c(-c2cccc(C#N)c2)c1O` [NUCC-0198399], the IC50 (MycCap cells) is reported as 2.5 µM and the “MLM % at 60 min” value [1] is reported as 80.3%.
Compound `Cn1nc(-c2ccc(OCc3ccc(Cl)cc3)c(-c3cccc(C#N)c3)c2O)cc1C(N)=O` [NUCC-0200558] has an IC50 (MycCap cells) of 49.3 µM and an IC50 (PC12 cells) of 31 µM.
In the case of `CCc1c(OCc2ccc(Cl)cc2)ccc(-c2cc(C(F)(F)F)n[nH]2)c1O` [NUCC-0200739], the IC50 (MycCap cells) is reported as 2.2 µM, the IC50 (PC12 cells) is reported as 19.4 µM and the “MLM % at 60 min” value [1] is reported as 46.4%.
`O=C(O)c1cc(-c2ccc(OCc3ccc(Cl)cc3)c(-c3cc(C(F)(F)F)cc(C(F)(F)F)c3)c2O)n[nH]1` [NUCC-0200973] showed an IC50 (MycCap cells) of 68.3 µM and an IC50 (PC12 cells) of 29.6 µM.
For `N#Cc1cncc(-c2c(OCc3ccc(Cl)cc3)ccc(-c3cc(C(F)(F)F)n[nH]3)c2O)c1` [NUCC-0201038], the IC50 (MycCap cells) was 6.8 µM and the IC50 (PC12 cells) was 18.3 µM.
Compound `COc1ccc(COc2ccc(-c3cc(C(F)(F)F)n[nH]3)c(O)c2-c2cc(C(F)(F)F)cc(C(F)(F)F)c2)cc1` [NUCC-0201041] has an IC50 (MycCap cells) of 12.6 µM and an IC50 (PC12 cells) of 128 µM.
With `CCCCCCOc1ccc(-c2cc(C(F)(F)F)n[nH]2)c(O)c1-c1cncc(C#N)c1` [NUCC-0201194] the IC50 (MycCap cells) was 4.2 µM and the IC50 (PC12 cells) was 59.8 µM.
For `CC(C)CCOc1ccc(-c2cc(C(F)(F)F)n[nH]2)c(O)c1-c1cncc(C#N)c1` [NUCC-0201195], the IC50 (MycCap cells) was 14.9 µM and the IC50 (PC12 cells) was 70.3 µM.
In the case of `CCCCCCOc1ccc(-c2cc(C(F)(F)F)n[nH]2)c(O)c1-c1cc(C(F)(F)F)cc(C(F)(F)F)c1` [NUCC-0201196], the IC50 (MycCap cells) is reported as 4.5 µM and the “MLM % at 60 min” value [1] is reported as 66.6%.
Work on `CCCOc1ccc(-c2cc(C(F)(F)F)n[nH]2)c(O)c1-c1cc(C(F)(F)F)cc(C(F)(F)F)c1` [NUCC-0201197] yielded an IC50 (MycCap cells) of 3.4 µM and an IC50 (PC12 cells) of 18.6 µM.
With `CC(CCOc1ccc(-c2cc(C(F)(F)F)n[nH]2)c(O)c1-c1cc(C(F)(F)F)cc(C(F)(F)F)c1)C(F)(F)F` (centres unmarked) [NUCC-0201198] the IC50 (MycCap cells) was 2.6 µM and the IC50 (PC12 cells) was 8.2 µM.
Compound `[N-]=[N+]=NCCOCCOCCOCC(=O)Nc1ccc(COc2ccc(-c3cc(C(F)(F)F)n[nH]3)c(O)c2-c2cc(C(F)(F)F)cc(C(F)(F)F)c2)cc1` [NUCC-0201199] has an IC50 (MycCap cells) of 3 µM and an IC50 (PC12 cells) of 12.7 µM.
`O=C1CCC(N2C(=O)c3cccc(OCc4cn(CCOCCOCCOCC(=O)Nc5ccc(COc6ccc(-c7cc(C(F)(F)F)n[nH]7)c(O)c6-c6cc(C(F)(F)F)cc(C(F)(F)F)c6)cc5)nn4)c3C2=O)C(=O)N1` (centres unmarked) [NUCC-0201202] showed an IC50 (MycCap cells) of 4 µM and an IC50 (PC12 cells) of 23.1 µM.
For `CCCCCCOc1ccc(-c2cc(C(F)(F)F)nn2C)c(O)c1-c1cncc(C(F)(F)F)c1` [NUCC-0201205], the IC50 (MycCap cells) was 9.5 µM and the IC50 (PC12 cells) was 36.3 µM.
For `CCCCCCOc1ccc(-c2cc(C(F)(F)F)nn2C)c(O)c1-c1cncc(C#N)c1` [NUCC-0201207], the IC50 (MycCap cells) was 5.7 µM and the “MLM % at 60 min” value [1] was 52.7%.
In the case of `CCCCOc1ccc(-c2cc(C(F)(F)F)n(C)n2)c(O)c1-c1cncc(C(F)(F)F)c1` [NUCC-0201209], the IC50 (MycCap cells) is reported as 4.4 µM and the “MLM % at 60 min” value [1] is reported as 10.3%.
Work on `CCCCCCOc1ccc(-c2cc(C(F)(F)F)n(C)n2)c(O)c1-c1cncc(C#N)c1` [NUCC-0201212] yielded an IC50 (MycCap cells) of 23.7 µM and an IC50 (PC12 cells) of 30.8 µM.
`COc1ccc(-c2cc(C(F)(F)F)[nH]n2)c(O)c1-c1cc(C(F)(F)F)cc(C(F)(F)F)c1` [NUCC-0201220] showed an IC50 (MycCap cells) of 4.9 µM and an IC50 (PC12 cells) of 91.6 µM.
`CCCCOc1ccc(-c2cc(C(F)(F)F)n[nH]2)c(O)c1-c1ccc(Cl)c(C(F)(F)F)c1` [NUCC-0201225] showed an IC50 (MycCap cells) of 19 µM and an IC50 (PC12 cells) of 82.6 µM.
`CCCCOc1ccc(-c2cc(C(F)(F)F)n(C)n2)c(O)c1-c1ccc(Cl)c(C(F)(F)F)c1` [NUCC-0201227] gave an IC50 (MycCap cells) of 4.5 µM and an IC50 (PC12 cells) of 1 µM.
In the case of `Cn1nc(C(F)(F)F)cc1-c1ccc(OCc2ccc(Cl)cc2)c(-c2cncc(C(F)(F)F)c2)c1O` [NUCC-0201630], the IC50 (MycCap cells) is reported as 15.4 µM and the IC50 (PC12 cells) is reported as 42.3 µM.
`Cn1nc(-c2ccc(OCc3ccc(Cl)cc3)c(-c3cncc(C#N)c3)c2O)cc1C(F)(F)F` [NUCC-0201633] gave an IC50 (MycCap cells) of 4.6 µM and an IC50 (PC12 cells) of 27.3 µM.
With `Cn1nc(-c2ccc(OCCCNC(=O)OC(C)(C)C)c(-c3cncc(C(F)(F)F)c3)c2O)cc1C(F)(F)F` [NUCC-0201656] the IC50 (MycCap cells) was 5.5 µM and the IC50 (PC12 cells) was 18 µM.
